Reference: ChEMBL document CHEMBL1201862, “PubChem BioAssay data set” (2004)
Values joined by “and” are separate entries in the source; they are usually repeats but may differ in a detail not shown here. Identical values can stand only once. Active and inactive are the calls of the source.

Legend:
Type in all cases: functional
[1] = biological target: T1, Apoptotic protease-activating factor 1 (Homo sapiens, UniProt O14727); assay: SAR analysis of small molecule Activators of Apaf-1 in a Fluorescent assay - set 2.; details: read-out: EC50_Mean
T1 sequence (O14727 whole entry): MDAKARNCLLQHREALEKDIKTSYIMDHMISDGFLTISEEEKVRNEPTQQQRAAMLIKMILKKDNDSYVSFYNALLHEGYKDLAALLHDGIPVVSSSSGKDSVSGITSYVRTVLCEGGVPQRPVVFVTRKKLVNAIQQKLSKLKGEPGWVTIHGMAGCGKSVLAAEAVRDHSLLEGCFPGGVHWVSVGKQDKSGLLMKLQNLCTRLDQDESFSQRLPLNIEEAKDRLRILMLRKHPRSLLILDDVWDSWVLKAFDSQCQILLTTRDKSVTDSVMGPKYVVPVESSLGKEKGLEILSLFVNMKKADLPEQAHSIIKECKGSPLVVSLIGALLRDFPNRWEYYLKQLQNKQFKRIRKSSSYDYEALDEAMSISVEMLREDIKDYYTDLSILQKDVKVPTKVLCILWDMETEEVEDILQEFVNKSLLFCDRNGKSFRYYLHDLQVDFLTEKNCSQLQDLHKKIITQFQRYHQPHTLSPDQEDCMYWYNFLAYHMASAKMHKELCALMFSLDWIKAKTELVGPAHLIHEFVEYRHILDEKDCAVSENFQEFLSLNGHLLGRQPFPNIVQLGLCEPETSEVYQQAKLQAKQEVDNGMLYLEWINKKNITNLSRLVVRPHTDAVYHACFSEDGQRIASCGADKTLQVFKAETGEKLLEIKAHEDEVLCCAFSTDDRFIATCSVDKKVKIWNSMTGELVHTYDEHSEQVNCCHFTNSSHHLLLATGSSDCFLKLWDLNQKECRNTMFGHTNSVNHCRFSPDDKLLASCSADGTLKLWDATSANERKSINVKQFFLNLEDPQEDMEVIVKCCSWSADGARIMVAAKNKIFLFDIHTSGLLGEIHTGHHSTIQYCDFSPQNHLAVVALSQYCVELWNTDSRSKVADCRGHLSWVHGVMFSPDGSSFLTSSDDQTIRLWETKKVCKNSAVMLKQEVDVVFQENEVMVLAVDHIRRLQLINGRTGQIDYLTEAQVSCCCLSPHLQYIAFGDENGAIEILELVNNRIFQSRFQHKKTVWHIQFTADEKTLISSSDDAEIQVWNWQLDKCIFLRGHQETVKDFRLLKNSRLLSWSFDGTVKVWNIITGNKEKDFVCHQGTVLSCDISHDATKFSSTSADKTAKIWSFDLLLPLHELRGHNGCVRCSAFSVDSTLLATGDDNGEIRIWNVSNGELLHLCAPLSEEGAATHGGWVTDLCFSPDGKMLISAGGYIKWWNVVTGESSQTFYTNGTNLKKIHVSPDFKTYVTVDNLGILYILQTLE

[2] = biological target: T1, Apoptotic protease-activating factor 1; assay: activation of Apaf-1 mediated apoptosis – fluorescent, uHTS hits, dose response (AID 588554)
[3] = SAR analysis of small molecule activators of Apaf-1 using a LZ-Caspase-9/Caspase-3 Fluorescent Selectivity assay - Set 2.; details: read-out: EC50_Mean
[4] = biological target: T1, Apoptotic protease-activating factor 1; assay: SAR analysis of small molecule Activators of Apaf-1 in a Fluorescent assay.; details: read-out: EC50_Mean
[5] = biological target: Mitogen-activated protein kinase 9 (Homo sapiens, UniProt P45984);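 further: value from a kinome panel profiling assay, MAPK9 panel entry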
[6] = biological target: Proto-oncogene tyrosine-protein kinase receptor Ret (Homo sapiens, UniProt P07949);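 further: measured within a kinome-wide profiling panel, RET as the panel member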
[7] = biological target: Macrophage-stimulating protein receptor (Homo sapiens, UniProt Q04912); assay: Navigating the Kinome. Panel member name: MST1R
Sequence of Macrophage-stimulating protein receptor (Q04912 25-304 limits assumed): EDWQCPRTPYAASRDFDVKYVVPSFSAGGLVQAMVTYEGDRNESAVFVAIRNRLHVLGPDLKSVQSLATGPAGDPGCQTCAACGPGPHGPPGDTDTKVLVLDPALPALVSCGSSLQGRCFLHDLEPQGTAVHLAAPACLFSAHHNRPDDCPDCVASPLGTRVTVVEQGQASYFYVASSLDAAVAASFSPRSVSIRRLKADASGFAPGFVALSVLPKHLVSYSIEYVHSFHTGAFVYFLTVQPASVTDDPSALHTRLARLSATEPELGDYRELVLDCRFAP
Sequence of Macrophage-stimulating protein receptor (Q04912 310-1400 limits assumed): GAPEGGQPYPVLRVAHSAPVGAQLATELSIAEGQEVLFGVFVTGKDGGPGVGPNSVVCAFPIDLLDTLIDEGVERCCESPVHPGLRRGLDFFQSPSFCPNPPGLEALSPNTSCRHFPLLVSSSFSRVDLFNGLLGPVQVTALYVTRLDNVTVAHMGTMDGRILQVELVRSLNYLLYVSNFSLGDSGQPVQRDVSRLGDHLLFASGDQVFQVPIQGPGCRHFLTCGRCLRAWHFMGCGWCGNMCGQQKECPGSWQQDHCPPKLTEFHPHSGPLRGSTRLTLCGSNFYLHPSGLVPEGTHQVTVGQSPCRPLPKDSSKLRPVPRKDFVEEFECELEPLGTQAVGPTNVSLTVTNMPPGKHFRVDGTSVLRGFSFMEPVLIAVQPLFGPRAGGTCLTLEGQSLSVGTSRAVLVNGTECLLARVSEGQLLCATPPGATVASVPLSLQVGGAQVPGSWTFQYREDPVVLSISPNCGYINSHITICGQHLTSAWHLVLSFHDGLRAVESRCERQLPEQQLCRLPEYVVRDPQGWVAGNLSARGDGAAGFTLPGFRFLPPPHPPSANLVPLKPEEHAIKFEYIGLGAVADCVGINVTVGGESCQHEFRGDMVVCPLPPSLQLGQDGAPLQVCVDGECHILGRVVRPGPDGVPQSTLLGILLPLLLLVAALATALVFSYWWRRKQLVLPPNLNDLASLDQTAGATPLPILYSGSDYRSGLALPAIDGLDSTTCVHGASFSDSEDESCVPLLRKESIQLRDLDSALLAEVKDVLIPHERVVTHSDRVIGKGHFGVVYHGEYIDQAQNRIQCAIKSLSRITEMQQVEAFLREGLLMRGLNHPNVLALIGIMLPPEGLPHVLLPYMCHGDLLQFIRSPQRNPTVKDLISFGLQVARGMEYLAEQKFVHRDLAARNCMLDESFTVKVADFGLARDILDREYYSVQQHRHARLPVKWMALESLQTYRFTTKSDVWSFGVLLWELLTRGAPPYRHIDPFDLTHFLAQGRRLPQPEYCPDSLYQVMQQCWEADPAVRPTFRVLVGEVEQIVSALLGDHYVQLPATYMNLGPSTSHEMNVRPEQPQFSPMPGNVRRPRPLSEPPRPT

[8] = biological target: Inhibitor of nuclear factor kappa-B kinase subunit epsilon (Homo sapiens, UniProt Q14164); assay: Navigating the Kinome. Panel member name: IKBKE
Sequence of Inhibitor of nuclear factor kappa-B kinase subunit epsilon (Q14164 whole entry): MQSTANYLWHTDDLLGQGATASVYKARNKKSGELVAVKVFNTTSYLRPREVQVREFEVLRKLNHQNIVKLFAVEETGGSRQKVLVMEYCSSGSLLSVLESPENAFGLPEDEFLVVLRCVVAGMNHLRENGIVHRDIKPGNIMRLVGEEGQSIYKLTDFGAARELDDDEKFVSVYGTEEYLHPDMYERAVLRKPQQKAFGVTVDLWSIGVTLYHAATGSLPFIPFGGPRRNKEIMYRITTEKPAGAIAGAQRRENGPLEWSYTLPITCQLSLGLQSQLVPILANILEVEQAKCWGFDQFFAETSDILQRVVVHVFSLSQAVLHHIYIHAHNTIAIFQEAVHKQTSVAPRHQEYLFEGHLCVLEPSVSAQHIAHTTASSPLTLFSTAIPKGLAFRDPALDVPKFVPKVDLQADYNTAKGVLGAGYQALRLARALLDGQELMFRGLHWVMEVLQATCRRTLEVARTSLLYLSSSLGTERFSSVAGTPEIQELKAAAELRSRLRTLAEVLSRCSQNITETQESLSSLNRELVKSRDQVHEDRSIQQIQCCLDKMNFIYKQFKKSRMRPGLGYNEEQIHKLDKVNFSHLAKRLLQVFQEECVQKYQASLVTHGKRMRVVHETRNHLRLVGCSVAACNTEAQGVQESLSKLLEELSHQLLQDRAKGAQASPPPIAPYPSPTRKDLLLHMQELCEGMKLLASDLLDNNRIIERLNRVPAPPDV

[9] = biological target: Death-associated protein kinase 3 (Homo sapiens, UniProt O43293);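 further: measured as one member of a kinome-wide profiling panel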
[10] = biological target: Cyclin-dependent kinase 5 (Homo sapiens, UniProt Q00535);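 further: CDK5 measured as one member of a kinase profiling panel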
[11] = biological target: Vascular endothelial growth factor receptor 1 (Homo sapiens, UniProt P17948);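 further: measured within a kinome-wide profiling panel, FLT1 as the panel member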
[12] = biological target: ALK tyrosine kinase receptor (Homo sapiens, UniProt Q9UM73);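 further: ALK tested as one member of a kinase panel screen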
[13] = biological target: Dual specificity tyrosine-phosphorylation-regulated kinase 1A (Homo sapiens, UniProt Q13627);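 further: measured against DYRK1A as one member of a broad kinome profiling panel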
[14] = biological target: Fibroblast growth factor receptor 1 (Homo sapiens, UniProt P11362)
[15] = biological target: G protein-coupled receptor kinase 5 (Homo sapiens, UniProt P34947); assay: Navigating the Kinome. Panel member name: GPRK5
Sequence of G protein-coupled receptor kinase 5 (P34947 whole entry): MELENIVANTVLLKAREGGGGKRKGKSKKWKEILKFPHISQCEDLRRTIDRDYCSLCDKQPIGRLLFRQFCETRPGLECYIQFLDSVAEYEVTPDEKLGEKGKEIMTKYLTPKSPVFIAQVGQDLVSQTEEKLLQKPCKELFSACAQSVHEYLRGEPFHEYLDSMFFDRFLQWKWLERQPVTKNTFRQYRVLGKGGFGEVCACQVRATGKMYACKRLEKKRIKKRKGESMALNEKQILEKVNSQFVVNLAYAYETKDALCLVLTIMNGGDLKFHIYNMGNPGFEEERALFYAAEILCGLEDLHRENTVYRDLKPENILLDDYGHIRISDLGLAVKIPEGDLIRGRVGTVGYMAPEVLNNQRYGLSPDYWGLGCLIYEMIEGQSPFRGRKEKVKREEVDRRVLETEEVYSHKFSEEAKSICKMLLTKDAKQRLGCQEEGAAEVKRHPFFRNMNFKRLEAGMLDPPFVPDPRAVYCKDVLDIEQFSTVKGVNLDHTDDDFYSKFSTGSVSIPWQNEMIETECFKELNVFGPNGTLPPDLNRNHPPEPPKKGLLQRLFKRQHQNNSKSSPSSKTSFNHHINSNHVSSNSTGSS

[16] = biological target: Dual specificity mitogen-activated protein kinase kinase 1 (Homo sapiens, UniProt Q02750); assay: Navigating the Kinome. Panel member name: MAP2K1
[17] = biological target: Dual specificity protein kinase CLK4 (Homo sapiens, UniProt Q9HAZ1)
[18] = biological target: Serine/threonine-protein kinase PAK 4 (Homo sapiens, UniProt O96013);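 further: value obtained within a kinome profiling panel in which PAK4 was one of the panel members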
[19] = biological target: Glycogen synthase kinase-3 alpha (Homo sapiens, UniProt P49840);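 further: GSK3A result taken from a broad kinome-wide kinase panel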
[20] = biological target: 5'-AMP-activated protein kinase catalytic subunit alpha-1 (Homo sapiens, UniProt Q13131)
Aurora kinase A = Aurora kinase A (Homo sapiens, UniProt O14965);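 further: value from the Navigating the Kinome kinase panel profiling, panel entry STK6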
[21] = biological target: Serine/threonine-protein kinase TBK1 (Homo sapiens, UniProt Q9UHD2); assay: Navigating the Kinome. Panel member name: TBK1
[22] = biological target: Leucine-rich repeat serine/threonine-protein kinase 2 (Homo sapiens, UniProt Q5S007);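 further: value from a broad kinome-wide panel profiling study in which LRRK2 was one of the kinases tested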
[23] = biological target: Calcium/calmodulin-dependent protein kinase type II subunit alpha (Homo sapiens, UniProt Q9UQM7); assay: Navigating the Kinome. Panel member name: CAMK2A
[24] = biological target: Glycogen synthase kinase-3 beta (Homo sapiens, UniProt P49841);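 further: value comes from a broad kinome profiling panel, with GSK3B as the panel member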
[25] = biological target: Tyrosine-protein kinase JAK3 (Homo sapiens, UniProt P52333)
[26] = biological target: Mitogen-activated protein kinase kinase kinase kinase 2 (Homo sapiens, UniProt Q12851);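 further: measured as one member of a kinome-wide kinase panel, with MAP4K2 as the panel entry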
[27] = biological target: Dual specificity tyrosine-phosphorylation-regulated kinase 1B (Homo sapiens, UniProt Q9Y463); assay: Navigating the Kinome. Panel member name: DYRK1B
[28] = biological target: Rho-associated protein kinase 1 (Homo sapiens, UniProt Q13464);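 further: measured within a broad kinome-wide panel profiling many kinases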
[29] = biological target: cAMP-dependent protein kinase catalytic subunit alpha (Homo sapiens, UniProt P17612)
[30] = biological target: Cyclin-dependent kinase 9 (Homo sapiens, UniProt P50750);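 further: value from the CDK9 entry of a kinome-spanning kinase panel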
[31] = biological target: Leukocyte tyrosine kinase receptor (Homo sapiens, UniProt P29376); assay: Navigating the Kinome. Panel member name: LTK
Sequence of Leukocyte tyrosine kinase receptor (P29376 whole entry): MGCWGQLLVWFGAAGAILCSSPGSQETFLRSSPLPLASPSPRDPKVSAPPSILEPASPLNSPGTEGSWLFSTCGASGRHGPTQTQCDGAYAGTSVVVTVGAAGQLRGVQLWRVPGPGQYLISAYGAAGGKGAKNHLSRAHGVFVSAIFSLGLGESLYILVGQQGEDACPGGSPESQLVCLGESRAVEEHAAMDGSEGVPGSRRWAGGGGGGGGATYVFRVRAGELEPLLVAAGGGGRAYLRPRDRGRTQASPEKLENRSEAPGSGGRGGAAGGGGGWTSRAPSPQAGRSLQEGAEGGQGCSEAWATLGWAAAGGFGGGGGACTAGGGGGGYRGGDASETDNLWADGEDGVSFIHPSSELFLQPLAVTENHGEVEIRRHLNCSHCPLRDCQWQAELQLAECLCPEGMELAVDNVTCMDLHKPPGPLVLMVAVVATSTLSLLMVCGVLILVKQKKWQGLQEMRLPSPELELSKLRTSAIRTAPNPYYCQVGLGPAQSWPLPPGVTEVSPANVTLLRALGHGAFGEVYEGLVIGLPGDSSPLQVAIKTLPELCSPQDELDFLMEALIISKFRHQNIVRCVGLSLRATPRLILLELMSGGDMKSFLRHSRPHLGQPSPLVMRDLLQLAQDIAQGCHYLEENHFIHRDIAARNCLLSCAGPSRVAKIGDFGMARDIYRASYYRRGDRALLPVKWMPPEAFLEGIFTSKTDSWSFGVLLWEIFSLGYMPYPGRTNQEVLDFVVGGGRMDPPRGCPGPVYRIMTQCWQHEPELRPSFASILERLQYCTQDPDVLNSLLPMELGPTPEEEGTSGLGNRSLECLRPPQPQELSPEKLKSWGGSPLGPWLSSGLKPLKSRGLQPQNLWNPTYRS

[32] = biological target: cAMP-dependent protein kinase catalytic subunit PRKX (Homo sapiens, UniProt P51817)
[33] = biological target: Serine/threonine-protein kinase TAO1 (Homo sapiens, UniProt Q7L7X3)
[34] = biological target: Serine/threonine-protein kinase pim-1 (Homo sapiens, UniProt P11309)
[35] = biological target: Tyrosine-protein kinase receptor TYRO3 (Homo sapiens, UniProt Q06418);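 further: TYRO3 value obtained as one member of a kinome-wide profiling panel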
[36] = biological target: Insulin-like growth factor 1 receptor (Homo sapiens, UniProt P08069); assay: Navigating the Kinome. Panel member name: IGF1R
Activated CDC42 kinase 1 = Activated CDC42 kinase 1 (Homo sapiens, UniProt Q07912); assay: Navigating the Kinome. Panel member name: ACK1
[37] = biological target: Platelet-derived growth factor receptor alpha (Homo sapiens, UniProt P16234); assay: Navigating the Kinome. Panel member name: PDGFRA
[38] = biological target: BDNF/NT-3 growth factors receptor (Homo sapiens, UniProt Q16620);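 further: NTRK2 measured as one member of a broad kinome-wide kinase profiling panel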
[39] = biological target: Macrophage colony-stimulating factor 1 receptor (Homo sapiens, UniProt P07333);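 further: value comes from the Navigating the Kinome screening panel, CSF1R member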
[40] = biological target: Ribosomal protein S6 kinase alpha-3 (Homo sapiens, UniProt P51812);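 further: measured within a kinome-wide profiling panel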
[41] = biological target: High affinity nerve growth factor receptor (Homo sapiens, UniProt P04629);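 further: NTRK1 tested as one member of a kinome-wide profiling panel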
[42] = biological target: Tyrosine-protein kinase BTK (Homo sapiens, UniProt Q06187)
[43] = biological target: Tyrosine-protein kinase ABL1 (Homo sapiens, UniProt P00519)
[44] = biological target: Protein kinase C theta type (Homo sapiens, UniProt Q04759); assay: Navigating the Kinome. Panel member name: PRKCQ
[45] = biological target: Hepatocyte growth factor receptor (Homo sapiens, UniProt P08581);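 further: kinase panel profiling across the kinome, with MET as the panel member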
Sequence of Hepatocyte growth factor receptor (P08581 whole entry): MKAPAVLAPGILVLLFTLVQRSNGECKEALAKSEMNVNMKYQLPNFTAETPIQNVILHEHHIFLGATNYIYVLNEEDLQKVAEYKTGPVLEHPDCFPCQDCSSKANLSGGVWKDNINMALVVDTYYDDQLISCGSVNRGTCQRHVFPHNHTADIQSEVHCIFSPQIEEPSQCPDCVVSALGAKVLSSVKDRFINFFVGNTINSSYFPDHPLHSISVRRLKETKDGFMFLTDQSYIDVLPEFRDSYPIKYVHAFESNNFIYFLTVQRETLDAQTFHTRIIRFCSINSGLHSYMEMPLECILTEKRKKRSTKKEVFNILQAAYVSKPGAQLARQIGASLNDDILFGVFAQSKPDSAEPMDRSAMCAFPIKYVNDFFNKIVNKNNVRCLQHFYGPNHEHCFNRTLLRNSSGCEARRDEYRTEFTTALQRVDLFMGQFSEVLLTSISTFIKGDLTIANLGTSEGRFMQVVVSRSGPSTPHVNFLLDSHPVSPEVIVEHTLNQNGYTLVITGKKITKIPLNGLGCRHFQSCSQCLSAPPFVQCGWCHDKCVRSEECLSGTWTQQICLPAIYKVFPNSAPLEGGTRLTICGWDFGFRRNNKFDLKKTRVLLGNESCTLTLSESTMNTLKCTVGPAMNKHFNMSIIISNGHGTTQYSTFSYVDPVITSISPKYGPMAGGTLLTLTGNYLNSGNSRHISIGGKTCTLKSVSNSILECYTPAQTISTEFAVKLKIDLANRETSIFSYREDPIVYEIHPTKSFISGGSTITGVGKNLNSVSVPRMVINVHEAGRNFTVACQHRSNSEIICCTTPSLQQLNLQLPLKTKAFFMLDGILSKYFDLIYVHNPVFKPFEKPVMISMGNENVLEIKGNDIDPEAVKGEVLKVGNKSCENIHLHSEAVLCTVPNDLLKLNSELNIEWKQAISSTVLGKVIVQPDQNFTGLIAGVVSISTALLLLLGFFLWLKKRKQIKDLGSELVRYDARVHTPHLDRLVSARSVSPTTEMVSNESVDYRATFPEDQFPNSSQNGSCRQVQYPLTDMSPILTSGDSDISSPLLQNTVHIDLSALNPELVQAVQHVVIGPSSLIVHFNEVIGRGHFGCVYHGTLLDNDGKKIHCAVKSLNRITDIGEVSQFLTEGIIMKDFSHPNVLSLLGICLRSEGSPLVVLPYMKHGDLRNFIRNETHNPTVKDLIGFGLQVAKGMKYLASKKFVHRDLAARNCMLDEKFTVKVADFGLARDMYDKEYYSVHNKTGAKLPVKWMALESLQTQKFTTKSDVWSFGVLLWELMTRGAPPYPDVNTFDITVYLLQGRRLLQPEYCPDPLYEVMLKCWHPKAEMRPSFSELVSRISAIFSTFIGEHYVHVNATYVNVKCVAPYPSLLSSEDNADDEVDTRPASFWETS

[46] = biological target: Tyrosine-protein kinase JAK2 (Homo sapiens, UniProt O60674);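 further: JAK2 tested as one member of a kinase panel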
[47] = biological target: Dual specificity protein kinase CLK2 (Homo sapiens, UniProt P49760)
[48] = biological target: Tyrosine-protein kinase Fyn (Homo sapiens, UniProt P06241)
[49] = biological target: Vascular endothelial growth factor receptor 2 (Homo sapiens, UniProt P35968)
[50] = biological target: Mitogen-activated protein kinase 8 (Homo sapiens, UniProt P45983);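 further: value comes from one member of a kinome-wide kinase profiling panel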
[51] = biological target: Cyclin-dependent kinase 8 (Homo sapiens, UniProt P49336); assay: Navigating the Kinome. Panel member name: CDK8
Activin receptor type-1 = Activin receptor type-1 (Homo sapiens, UniProt Q04771); assay: Navigating the Kinome. Panel member name: ACVR1
[52] = biological target: Serine/threonine-protein kinase D3 (Homo sapiens, UniProt O94806);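 further: determined within a kinase panel screen, with PRKCN as the panel member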
Aurora kinase B = Aurora kinase B (Homo sapiens, UniProt Q96GD4)
[53] = biological target: Cyclin-dependent kinase 7 (Homo sapiens, UniProt P50613);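 further: value comes from a kinome-wide kinase profiling panel in which CDK7 is one member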
[54] = biological target: Mitogen-activated protein kinase 14 (Homo sapiens, UniProt Q16539);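 further: part of a kinome-wide panel, MAPK14 entry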
[55] = biological target: Receptor-type tyrosine-protein kinase FLT3 (Homo sapiens, UniProt P36888);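 further: FLT3 was tested as one member of a kinome-wide kinase panel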
[56] = biological target: Mitogen-activated protein kinase kinase kinase kinase 4 (Homo sapiens, UniProt O95819)
[57] = biological target: Dual specificity mitogen-activated protein kinase kinase 2 (Homo sapiens, UniProt P36507); assay: Navigating the Kinome. Panel member name: MAP2K2
[58] = biological target: Neuropeptides B/W receptor type 1 (Homo sapiens, UniProt P48145); assay: human NPBW1 receptor blockade, IC50 – cell-based, fluorescence, dose response, set 6, late-stage follow-up (AID 588583)
[59] = biological target: Melanin-concentrating hormone receptor 1 (Homo sapiens, UniProt Q99705); assay: Late-stage fluorescence-based counterscreen for antagonists of the G-protein coupled receptor 7 (GPR7): cell-based dose response assay to identify antagonists of the melanin-concentrating hormone receptor 1 (MCHR1) Set 6.

In the case of CC(Cc1c[nH]c2ccccc12)C(=O)O (stereo not drawn), the EC50 [1] is reported as 9.48 µM (active) and 8.03 µM (active), the EC50 [2] is reported as 2.25 µM (active) and the EC50 [3] is reported as > 99 µM (inactive) and > 100 µM (inactive). The EC50 [4] was 8.95 µM (active).

In the case of O=C(Nc1cccc(C(F)(F)F)n1)Nc1ccnc2ccc(Cl)cc12, the Ki [5] is reported as > 3.98 µM (inactive), the Ki [6] is reported as > 3.16 µM (inactive) and the Ki [7] is reported as > 3.98 µM (inactive). For the same compound, the Ki [8] was > 3.16 µM (inactive), the Ki [9] was 5.01 µM (active) and the Ki [10] was > 3.16 µM (inactive). For the same compound, the Ki [11] was > 3.98 µM (inactive), the Ki [12] was > 6.31 µM (inactive) and the Ki [13] was > 2 µM (inactive). For the same compound, the Ki [14] was > 3.98 µM (inactive), the Ki [15] was > 3.98 µM (inactive) and the Ki [16] was > 3.16 µM (inactive). The Ki [17] was 0.158 µM (active), the Ki [18] was > 5.01 µM (inactive) and the Ki [19] was 0.0631 µM (active). For the same compound, the Ki [20] was > 3.16 µM (inactive), the Ki (Aurora kinase A) was > 1.58 µM (inactive) and the Ki [21] was > 3.16 µM (inactive). The Ki [22] was > 2.51 µM (inactive), the Ki [23] was > 7.94 µM (inactive) and the Ki [24] was 0.0398 µM (active). For the same compound, the Ki [25] was > 5.01 µM (inactive), the Ki [26] was > 2.51 µM (inactive) and the Ki [27] was 1.58 µM (active). The Ki [28] was > 3.98 µM (inactive), the Ki [29] was > 1.26 µM (inactive) and the Ki [30] was > 1.58 µM (inactive). The Ki [31] was > 2.51 µM (inactive), the Ki [32] was > 3.16 µM (inactive) and the Ki [33] was > 6.31 µM (inactive). For the same compound, the Ki [34] was > 6.31 µM (inactive), the Ki [35] was 2.51 µM (active) and the Ki [36] was > 2.51 µM (inactive). For the same compound, the Ki (Activated CDC42 kinase 1) was > 3.98 µM (inactive), the Ki [37] was > 2.51 µM (inactive) and the Ki [38] was > 3.98 µM (inactive). For the same compound, the Ki [39] was > 2.51 µM (inactive), the Ki [40] was > 3.98 µM (inactive) and the Ki [41] was > 3.16 µM (inactive). For the same compound, the Ki [42] was > 6.31 µM (inactive), the Ki [43] was 2 µM (active) and the Ki [44] was > 2.51 µM (inactive). For the same compound, the Ki [45] was > 2.51 µM (inactive), the Ki [46] was > 2.51 µM (inactive) and the Ki [47] was 3.16 µM (active). The Ki [48] was > 6.31 µM (inactive), the Ki [49] was > 2.51 µM (inactive) and the Ki [50] was > 5.01 µM (inactive). The Ki [51] was 0.0631 µM (active), the Ki (Activin receptor type-1) was 1.58 µM (active) and the Ki [52] was > 3.98 µM (inactive). For the same compound, the Ki (Aurora kinase B) was > 3.98 µM (inactive), the Ki [53] was > 3.98 µM (inactive) and the Ki [54] was > 3.98 µM (inactive). The Ki [55] was > 3.16 µM (inactive), the Ki [56] was > 5.01 µM (inactive) and the Ki [57] was > 3.98 µM (inactive).

In the case of N#CC(c1ccsc1)c1c(Br)cnn(Cc2cccc3ccccc23)c1=O (stereo not drawn), the IC50 [58] is reported as 0.417 µM (active) and the IC50 [59] is reported as 0.417 µM (active).
